Converted amounts (≈) assume the structure as drawn.
Assays:
Type in all cases: cell-based
[1] = tested on: Escherichia coli ATCC 25922; experiment: Broth microdilution MIC, E. coli ATCC 25922 (MHIIB w & w/o 4 mM EDTA); conditions: broth microdilution, 37° C., 20 hours; for MIC: Escherichia coli, ATCC25922, without EDTA, read-out: MIC E. coli ATCC 25922; for MIC E. coli ATCC 25922 + 4 mM EDTA: with 4 mM EDTA
Summary of the method: (§1)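 Broth microdilution in strain-specific test medium with ~5.0×10^5 cfu/ml inoculum, 1% DMSO and two-fold compound dilutions from 64 to 0.0625 μg/ml. Plates were held 20 hours at 37° C in ambient air. S. pneumoniae colonies were grown beforehand on blood agar in 5% CO2.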

[2] = tested on: Bacillus subtilis ATCC 6633; experiment: Broth microdilution MIC, B. subtilis ATCC 6633; conditions: ATCC6633, broth microdilution, 37° C., 20 hours, read-out: MIC B. subtilis ATCC 6633
Summary of the method: as §1

[3] = tested on: Streptococcus pneumoniae ATCC 49619; experiment: Broth microdilution MIC, S. pneumoniae ATCC 49619; conditions: ATCC49619, broth microdilution, 37° C., 20 hours, read-out: MIC S. pneumoniae ATCC 49619
Summary of the method: as §1

[4] = tested on: Enterococcus faecalis ATCC 29212; experiment: Broth microdilution MIC, E. faecalis ATCC 29212; conditions: ATCC29212, broth microdilution, 37° C., 20 hours, read-out: MIC E. faecalis ATCC 29212
Summary of the method: as §1

[5] = tested on: Enterococcus faecium ATCC 700221 (VRE); experiment: Broth microdilution MIC, E. faecium ATCC 700221 (VRE); parameters: MIC E. faecium ATCC 700221 (VRE): unit: ug/mL; conditions: broth microdilution, 37° C., 20 hours; for MIC: Enterococcus faecium, read-out: MIC E. faecium ATCC 700221 (VRE)
Summary of the method: as §1

[6] = tested on: Staphylococcus aureus NRS384 (MRSA); experiment: Broth microdilution MIC, S. aureus NRS384 (MRSA); parameters: MIC NRS 384 (MRSA): unit not given here; conditions: broth microdilution, 37° C., 20 hours; for MIC: Staphylococcus aureus, read-out: MIC NRS 384 (MRSA)
Summary of the method: as §1

[7] = tested on: Staphylococcus aureus ATCC 29213 (MSSA); experiment: Broth microdilution MIC, S. aureus ATCC 29213 (MSSA); conditions: broth microdilution, 37° C., 20 hours, read-out: MIC S. aureus ATCC 29213 (MSSA)
Summary of the method: as §1

| SMILES | MIC [1] [µg/mL] | MIC E. coli ATCC 25922 + 4 mM EDTA [1] [µg/mL] | MIC [2] [µg/mL] | MIC [3] [µg/mL] | MIC [4] [µg/mL] | MIC E. faecium ATCC 700221 (VRE) [5] | MIC NRS 384 (MRSA) [6] | MIC [7] [µg/mL] | MIC [5] [µg/mL] | MIC [6] [µg/mL] |
| --- | --- | --- | --- | --- | --- | --- | --- | --- | --- | --- |
| Cl.O=c1[nH]c(NCc2ccc(Cl)c(Cl)c2)nc2cnn(CCc3cccnc3)c12 [Compound 110, 5-((3,4-Dichlorobenzyl)amino)-1-(2-(pyridin-3-yl)ethyl)-1H-pyrazolo[4,3-d]pyrimidin-7(6H)-one hydrochloride] | > 64 | >64 | 1 | 4 | 4 | 2/2 | 2/2 | 4 | – | – |
| Cl.O=c1[nH]c(NCc2ccc(Cl)c(Cl)c2)nc2cnn(CCc3ccccn3)c12 [Compound 111, 5-((3,4-Dichlorobenzyl)amino)-1-(2-(pyridin-2-yl)ethyl)-1H-pyrazolo[4,3-d]pyrimidin-7(6H)-one hydrochloride] | > 64 | >64 | 1 | 4 | 8 | 2/2 | 2/2 | 4 | – | – |
| Cl.O=c1[nH]c(NCc2ccc(Cl)c(Cl)c2)nc2cnn(Cc3cccnc3)c12 [Compound 113, 5-[(3,4-Dichlorophenyl)methylamino]-1-(3-pyridylmethyl)-6H-pyrazolo[4,3-d]pyrimidin-7-one] | > 64 | >64 | 1 | 8 | 8 | 2/2 | 4/4 | 4 | – | – |
| O=c1[nH]c(NCc2ccc(Cl)c(Cl)c2)nc2cnn(Cc3ncccn3)c12 [Compound 114, 5-((3,4-Dichlorobenzyl)amino)-1-(pyrimidin-2-ylmethyl)-1H-pyrazolo[4,3-d]pyrimidin-7(6H)-one] | > 64 | 32 | 2 (≈ 4.97 µM) | 4 (≈ 9.94 µM) | 16 (≈ 39.8 µM) | 4/4 | 4/4 | 8 (≈ 19.9 µM) | – | – |
| O=c1[nH]c(NCc2ccc(Cl)c(Cl)c2)nc2cnn(CCOCCOCCO)c12 [Compound 115, 5-((3,4-Dichlorobenzyl)amino)-1-(2-(2-(2-hydroxyethoxy)ethoxy)ethyl)-1H-pyrazolo[4,3-d]pyrimidin-7(6H)-one] | > 64 | >64 | 8 (≈ 18.1 µM) | 16 (≈ 36.2 µM) | 32 (≈ 72.3 µM) | – | – | 32 (≈ 72.3 µM) | 8 (≈ 18.1 µM) | 32 (≈ 72.3 µM) |
| O=c1[nH]c(NCc2ccc(Cl)c(Cl)c2)nc2cnn(CCOCCOCCOCCO)c12 [Compound 116, 5-((3,4-Dichlorobenzyl)amino)-1-(2-(2-(2-(2-hydroxyethoxy)ethoxy)ethoxy)ethyl)-1H-pyrazolo[4,3-d]pyrimidin-7(6H)-one] | > 64 | >64 | 8 (≈ 16.4 µM) | 8 (≈ 16.4 µM) | 16 (≈ 32.9 µM) | – | – | 64 (≈ 132 µM) | 8 (≈ 16.4 µM) | 32 (≈ 65.8 µM) |
| O=c1[nH]c(NCc2ccc(Cl)c(Cl)c2)nc2cnn(CCc3ncccn3)c12 [Compound 117, 5-((3,4-Dichlorobenzyl)amino)-1-(2-(pyrimidin-2-yl)ethyl)-1H-pyrazolo[4,3-d]pyrimidin-7(6H)-one] | > 64 | >64 | 2 (≈ 4.8 µM) | 4 (≈ 9.61 µM) | 8 (≈ 19.2 µM) | – | – | 8 (≈ 19.2 µM) | 4 (≈ 9.61 µM) | 8 (≈ 19.2 µM) |
| Cl.O=c1[nH]c(NCc2ccc(Cl)c(Cl)c2)nc2cnn(CCc3cnccn3)c12 [Compound 124, 5-((3,4-Dichlorobenzyl)amino)-1-(2-(pyrazin-2-yl)ethyl)-1H-pyrazolo[4,3-d]pyrimidin-7(6H)-one hydrochloride] | > 64 | >64 | 1 | 8 | 4 | – | – | 4 | 2 | 2 |
| COCCn1cc2nc(NCc3ccc(Cl)c(Cl)c3)[nH]c(=O)c2n1 [Compound 128, 5-((3,4-Dichlorobenzyl)amino)-2-(2-methoxyethyl)-2H-pyrazolo[4,3-d]pyrimidin-7(6H)-one] | > 64 | >64 | 16 (≈ 43.5 µM) | 16 (≈ 43.5 µM) | 32 (≈ 86.9 µM) | – | – | 32 (≈ 86.9 µM) | 32 (≈ 86.9 µM) | 32 (≈ 86.9 µM) |
| O=c1[nH]c(NCc2ccc(Cl)c(Cl)c2)nc2cn(Cc3ccccc3)nc12 [Compound 129, 2-Benzyl-5-((3,4-dichlorobenzyl)amino)-2H-pyrazolo[4,3-d]pyrimidin-7(6H)-one] | > 64 | >64 | > 64 | > 64 | > 64 | – | – | > 64 | > 64 | > 64 |

The remaining lines, values ahead:

| MIC [1] [µg/mL] | MIC E. coli ATCC 25922 + 4 mM EDTA [1] [µg/mL] | MIC [2] [µg/mL] | MIC [3] [µg/mL] | MIC [4] [µg/mL] | MIC E. faecium ATCC 700221 (VRE) [5] | MIC NRS 384 (MRSA) [6] | MIC [7] [µg/mL] | MIC [5] [µg/mL] | MIC [6] [µg/mL] | SMILES |
| --- | --- | --- | --- | --- | --- | --- | --- | --- | --- | --- |
| > 64 | >64 | 1 | 4 | 8 | 2/2 | 4/4 | 4 | – | – | Cl.O=c1[nH]c(NCc2ccc(Cl)c(Cl)c2)nc2cnn(Cc3cnccn3)c12 [Compound 112, 5-((3,4-Dichlorobenzyl)amino)-1-(pyrazin-2-ylmethyl)-1H-pyrazolo[4,3-d]pyrimidin-7(6H)-one hydrochloride] |
| > 64 | >64 | 0.5 (≈ 1.31 µM) | 2 (≈ 5.26 µM) | 2 (≈ 5.26 µM) | – | – | 2 (≈ 5.26 µM) | 1 (≈ 2.63 µM) | 2 (≈ 5.26 µM) | O=c1[nH]c(NCc2ccc(Cl)c(Cl)c2)nc2cnn(CC3COC3)c12 [Compound 118, 5-((3,4-Dichlorobenzyl)amino)-1-(oxetan-3-ylmethyl)-1H-pyrazolo[4,3-d]pyrimidin-7(6H)-one] |
| > 64 | >64 | 1 (≈ 2.63 µM) | 4 (≈ 10.5 µM) | 4 (≈ 10.5 µM) | – | – | 2 (≈ 5.26 µM) | 2 (≈ 5.26 µM) | 4 (≈ 10.5 µM) | O=c1[nH]c(NCc2ccc(Cl)c(Cl)c2)nc2cnn(C3CCOC3)c12 (centres unmarked) [Compound 119, 5-((3,4-Dichlorobenzyl)amino)-1-(tetrahydrofuran-3-yl)-1H-pyrazolo[4,3-d]pyrimidin-7(6H)-one] |
| > 64 | >64 | 1 (≈ 2.54 µM) | 4 (≈ 10.1 µM) | 4 (≈ 10.1 µM) | – | – | 2 (≈ 5.07 µM) | 2 (≈ 5.07 µM) | 2 (≈ 5.07 µM) | O=c1[nH]c(NCc2ccc(Cl)c(Cl)c2)nc2cnn(CC3CCOC3)c12 (centres unmarked) [Compound 120, 5-((3,4-Dichlorobenzyl)amino)-1-((tetrahydrofuran-3-yl)methyl)-1H-pyrazolo[4,3-d]pyrimidin-7(6H)-one] |
| > 64 | >64 | 0.5 (≈ 1.27 µM) | 4 (≈ 10.1 µM) | 4 (≈ 10.1 µM) | – | – | 4 (≈ 10.1 µM) | 2 (≈ 5.07 µM) | 2 (≈ 5.07 µM) | O=c1[nH]c(NCc2ccc(Cl)c(Cl)c2)nc2cnn(C3CCOCC3)c12 [Compound 121, 5-((3,4-Dichlorobenzyl)amino)-1-(tetrahydro-2H-pyran-4-yl)-1H-pyrazolo[4,3-d]pyrimidin-7(6H)-one] |
| > 64 | >64 | 1 (≈ 2.63 µM) | 4 (≈ 10.5 µM) | 4 (≈ 10.5 µM) | – | – | 2 (≈ 5.26 µM) | 2 (≈ 5.26 µM) | 2 (≈ 5.26 µM) | O=c1[nH]c(NCc2ccc(Cl)c(Cl)c2)nc2cnn(CC3CCO3)c12 (centres unmarked) [Compound 122, 5-((3,4-Dichlorobenzyl)amino)-1-(oxetan-2-ylmethyl)-1H-pyrazolo[4,3-d]pyrimidin-7(6H)-one] |
| > 64 | >64 | 0.5 (≈ 1.36 µM) | 2 (≈ 5.43 µM) | 4 (≈ 10.9 µM) | – | – | 2 (≈ 5.43 µM) | 1 (≈ 2.72 µM) | 2 (≈ 5.43 µM) | O=c1[nH]c(NCc2ccc(Cl)c(Cl)c2)nc2cnn(CCCO)c12 [Compound 123, 5-((3,4-Dichlorobenzyl)amino)-1-(3-hydroxypropyl)-1H-pyrazolo[4,3-d]pyrimidin-7(6H)-one] |
| > 64 | >64 | 32 (≈ 92.1 µM) | 8 (≈ 23 µM) | 32 (≈ 92.1 µM) | – | – | 32 (≈ 92.1 µM) | 32 (≈ 92.1 µM) | 32 (≈ 92.1 µM) | O=c1[nH]c(NCc2ccc(F)c(F)c2)nc2cnn(CC3CCO3)c12 (centres unmarked) [Compound 125, 5-((3,4-Difluorobenzyl)amino)-1-(oxetan-2-ylmethyl)-1H-pyrazolo[4,3-d]pyrimidin-7(6H)-one] |
| > 64 | >64 | 1 (≈ 2.5 µM) | > 64 | > 64 | – | – | > 64 | 32 (≈ 79.9 µM) | > 64 | O=c1[nH]c(NCc2ccc(Cl)c(Cl)c2)nc2cnn(Cc3ccccc3)c12 [Compound 127, 1-Benzyl-5-((3,4-dichlorobenzyl)amino)-1H-pyrazolo[4,3-d]pyrimidin-7(6H)-one] |

— patent US10723741B1, “DNA polymerase IIIC inhibitors and use thereof” (Acurx Pharmaceuticals, LLC, priority 2018, dated 2020)
